We go through 7 compounds from patent publication US4425432A (priority 1981, dated 1984).

SMILES strings stand for the structures. Read-outs that look alike come from different tables or passages of the source.

In one assay the test system is Marburg strain. Nature of the assay: microbe, parasite or virus in culture. It counts as cell-based, Butyribacterium methylotrophicum.
The subject of a further assay is Clostridium pasteurianum. Nature of the assay: microbe, parasite or virus in culture. It is filed as cell-based.
Where [1] appears, read: [Butyribacterium] methylotrophicum, 192 h, read-out: % Inhibition of growth, Marburg strain.
Setting [2] is: Clostridium pasteurianum, 1 h, read-out: % Inhibition of growth, Clostridium pasteurianum.

With `[Cl-].[Na+]` [Sodium chloride], the “sensitivity of the Marburg strain (B. methylotrophicum) to antibiotics and inhibitors, in words” value in the assay on Marburg strain is on record as “noticeably more tolerant”. The “% Inhibition of growth, Marburg strain” value with Marburg strain (2%) is listed as 0%. The “% Inhibition of growth, Clostridium pasteurianum” value in the assay on Clostridium pasteurianum (2%) is 73%.
Consider `O=O` [Oxygen], for which, in the assay on Marburg strain, the “% Inhibition of growth, Marburg strain” value was determined as 100%; the “sensitivity of the Marburg strain (B. methylotrophicum) to antibiotics and inhibitors, in words” value was “effective inhibitor of growth”. Moreover, the “% Inhibition of growth, Clostridium pasteurianum” value with Clostridium pasteurianum is reported as 100%.
Consider `[N-]=[N+]=[N-]` [Sodium azide], for which, in the assay with Marburg strain, the “sensitivity of the Marburg strain (B. methylotrophicum) to antibiotics and inhibitors, in words” value is on record as “noticeably more tolerant”. Moreover, the inhibition at 50 µg/mL amounted to 0% in the assay on Marburg strain (setting [1]) and 100% in the assay with Clostridium pasteurianum (setting [2]). Besides, the inhibition at 250 µg/mL in the assay on Marburg strain (setting [1]) worked out at 0%; in the assay on Clostridium pasteurianum (setting [2]), 93%.
As for `CN(C)C1C(=O)C(C(N)=O)=C(O)C2(O)C(=O)C3=C(O)c4c(O)cccc4C(C)(O)C3CC12` (stereo not shown) [Tetracycline], the inhibition at 100 µg/mL with Marburg strain (setting [1]) and in the assay with Clostridium pasteurianum (setting [2]) was 100% in each case.
As to `[H]/N=C(/N)N[C@H]1[C@H](O)[C@@H](O)[C@H](O[C@@H]2O[C@@H](C)[C@](O)(C=O)[C@H]2O[C@@H]2O[C@@H](CO)[C@H](O)[C@@H](O)[C@@H]2NC)[C@@H](N/C(N)=N\[H])[C@@H]1O` [Streptomycin], the figures for the inhibition at 100 µg/mL in the assay with Marburg strain (setting [1]) and with Clostridium pasteurianum (setting [2]) were 80% and 100%, respectively.
Regarding `CC1(C)S[C@@H]2[C@H](NC(=O)Cc3ccccc3)C(=O)N2[C@H]1C(=O)O` [Penicillin], the inhibition at 100 µg/mL in the assay on Marburg strain (setting [1]) and in the assay on Clostridium pasteurianum (setting [2]) was 100% in each case.
`O=C(N[C@H](CO)[C@H](O)c1ccc([N+](=O)[O-])cc1)C(Cl)Cl` [Chloramphenicol]: the inhibition at 100 µg/mL with Marburg strain (setting [1]) and in the assay on Clostridium pasteurianum (setting [2]) was 100% each time.

By inhibition is commonly meant the drop in the measured response relative to a control, in per cent.
